For orientation: Ki means a measure of affinity in units of concentration, obtained from inhibition or displacement. Higher therefore signals weaker binding.

Test [1] deals with HCV NS3 protease genotype 3a (3A-1) (Hepatitis C virus genotype 3a, UniProt Q81258). The test can be described thus: HCV NS3 protease time-resolved fluorescence (TRF) assay, genotype 3a. Type of test: biochemical. The following applies: Ki 3a. In outline:
(§1)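 Steps: compound plus NS3/NS4A enzyme for 10 minutes; add peptide substrate to 25 nM; let cleavage proceed 6 hours at room temperature; read product fluorescence (340 nm excitation, 615 nm emission, delayed 400 μs). Enzyme levels gave signal/background 5-20.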

The target in test [2] is T1, HCV genotype 1b (BK) NS3 modified enzyme with a R155K mutation (Hepatitis C virus genotype 1b, UniProt P26663, R1181K).
T1 construct: HCV genotype 1b (BK) NS3 modified enzyme
In words: HCV NS3 protease time-resolved fluorescence (TRF) assay, genotype 1b R155K. The class given is biochemical. The note with it: Ki 1b R155K. In outline: as §1

[3] abbreviates: first of two values printed in the cell (not explained).
[4] abbreviates: second of two values printed in the cell (not explained).
Setting [5] is: genotype 1b (BK) NS3 R155K, single value.

SMILES strings stand for the structures.

On to `C=C[C@@H]1C[C@]1(NC(=O)[C@@H]1C[C@@H]2CN1C(=O)[C@H](C1CCCCC1)NC(=O)O[C@@H]1C[C@H]1CCCCCc1c(nc3ccccc3c1OC1CC3COCC(C1)N3CCOC)O2)C(=O)NS(=O)(=O)C1(C)CC1` (stereo partly drawn) [Example 289, (1aR,5S,8S,10R,22aR)-5-cyclohexyl-N-[(1R,2S)-2-ethenyl-1-{[(1-methylcyclopropyl)sulfonyl]carbamoyl}cyclopropyl]-17-{[9-(2-methoxyethyl)-3-oxa-9-azabicyclo[3.3.1]non-7-yl]oxy}-3,6-dioxo-1,1a,3,4,5,6,9,10,18,19,20,21,22,22a-tetradecahydro-8H-7,10-methanocyclopropa[18,19][1,10,3,6]dioxadiazacyclononadecino[11,12-b]quinoline-8-carboxamide], for which the figures for the Ki in test [1], in test [2] (setting [3]) and in test [2] (setting [4]) were 3.27 nM, 0.03 nM and 0.197 nM, respectively.
Consider `C=C[C@@H]1C[C@]1(NC(=O)[C@@H]1C[C@@H]2CN1C(=O)[C@H](C(C)(C)C)NC(=O)O[C@@H]1CCC[C@H]1CCCCCc1c(nc3ccccc3c1OCCN1CCOCC1)O2)C(=O)NS(=O)(=O)C1(C)CC1` [Example 105, (3aR,7S,10S,12R,24aR)-7-tert-butyl-N-[(1R,2S)-2-ethenyl-1-{[(1-methyl-cyclopropyl)sulfonyl]carbamoyl}cyclopropyl]-19-[2-(morpholin-4-yl)ethoxy]-5,8-dioxo-1,2,3,3a, 5,6,7,8,11,12,20,21, 22,23,24,24a-hexadeca hydro-10H-9,12-methanocyclopenta [18,19][1,10,3,6]dioxadiazacyclo nonadecino[11,12-b]quinoline-10-carboxamide], for which the Ki in test [1] is 14 nM; in test [2] (setting [5]), 0.43 nM.
On to `C=C[C@@H]1C[C@]1(NC(=O)[C@@H]1C[C@@H]2CN1C(=O)[C@H](C(C)(C)C)NC(=O)O[C@@H]1C[C@H]1CCCCCc1c(nc3ccccc3c1OC1C3COCC1CN(C(=O)OC(C)(C)C)C3)O2)C(=O)NS(=O)(=O)C1(C)CC1` (single isomer, unassigned) [Example 255], for which the Ki in test [1] turned out to be 59.1 nM; in test [2] (setting [3]) it was 0.12 nM; in test [2] (setting [4]) it was 2.21 nM.
`CC[C@@H]1C[C@]1(NC(=O)[C@@H]1C[C@@H]2CN1C(=O)[C@H](C1CCCC1)NC(=O)O[C@@H]1CCC[C@H]1CCCCCc1c(nc3ccccc3c1OC)O2)C(=O)NS(=O)(=O)C1CC1` [Example 27, (3aR,7S,10S,12R,24aR)-7-cyclo pentyl-N-{(1R,2R)-1-[(cyclopropylsulfonyl)carbamoyl]-2-ethylcyclopropyl}-19-methoxy-5,8-dioxo-1,2,3,3a,5,6,7,8,11,12,20,21,22,23,24,24a-hexadeca hydro-10H-9,12-methanocyclopenta[18,19] [1,10,3,6]dioxadiazacyclononadecino[11,12-b] quinoline-10-carboxamide]: the Ki in test [1] was 59 nM; in test [2] (setting [5]), 2.5 nM.
On to `C=C[C@@H]1C[C@]1(NC(=O)[C@@H]1C[C@@H]2CN1C(=O)[C@H](C1CCCCC1)NC(=O)O[C@@H]1C[C@H]1CCCCCc1c(nc3ccccc3c1OC1CC3CCC(C1)N3C(=O)OC(C)(C)C)O2)C(=O)NS(=O)(=O)C1(C)CC1` (stereo partly drawn) [Example 282, tert-butyl 3-{[(1aR,5S,8S,10R,22aR)-5-cyclohexyl-8-{[(1R,2S)-2-ethenyl-1-{[(1-methylcyclopropyl)sulfonyl]carbamoyl}cyclopropyl]carbamoyl}-3,6-dioxo-1,1a,3,4,5,6,9,10,18,19,20,21,22,22a-tetradecahydro-8H-7,10-methanocyclopropa[18,19][1,10,3,6]dioxadiazacyclononadecino[11,12-b]quinolin-17-yl]oxy}-8-azabicyclo[3.2.1]octane-8-carboxylate], for which the inhibition constant (Ki) came out at 140 nM in test [1], 0.14 nM in test [2] (setting [3]) and 5.3 nM in test [2] (setting [4]).
For `CC[C@@H]1C[C@]1(NC(=O)[C@@H]1C[C@@H]2CN1C(=O)[C@H](C1CCCC1)NC(=O)O[C@@]1(C)CCC[C@@H]1CCCCCc1c(nc3ccccc3c1O)O2)C(=O)NS(=O)(=O)C1CC1` [Example 31, (3aS,7S,10S,12R,24aS)-7-cyclopentyl-N-{(1R,2R)-1-[(cyclopropylsulfonyl)carbamoyl]-2-ethylcyclopropyl}-19-hydroxy-3a-methyl-5,8-dioxo-1,2,3-3a,5,6,7,8,11,12,20,21,22,23,24,24a-hexadeca hydro-10H-9,12-methanocyclopenta[18,19] [1,10,3,6]dioxadiazacyclononadecino[11,12-b] quinoline-10-carboxamide], the figures for the Ki in test [1] and in test [2] (setting [5]) were 23 nM and 4.1 nM, respectively.
Turning to `C=C[C@@H]1C[C@]1(NC(=O)[C@@H]1C[C@@H]2CN1C(=O)[C@H](C(C)(C)C)NC(=O)O[C@@H]1C[C@H]1CCCCCc1c(nc3ccccc3c1OCCCNC1CCC1)O2)C(=O)NS(=O)(=O)C1(C)CC1` [Example 180, (1aR,5S,8S,10R,22aR)-5-tert-butyl-17-[3-(cyclobutylamino)propoxy]-N-[(1R,2S)-2-ethenyl-1-{[(1-methylcyclopropyl)sulfonyl]carbamoyl}cyclopropyl]-3,6-dioxo-1,1a,3,4,5,6,9,10, 18,19,20,21,22,22a-tetradeca hydro-8H-7,10-methanocyclopropa[18,19][1,10,3,6] dioxadiazacyclononadecino[11,12-b] quinoline-8-carboxamide], the inhibition constant Ki in test [1] came to 0.58 nM; in test [2] (setting [5]), 0.037 nM.
For `C=C[C@@H]1C[C@]1(NC(=O)[C@@H]1C[C@@H]2CN1C(=O)[C@H](C(C)(C)C)NC(=O)O[C@@H]1C[C@H]1CCCCCc1c(nc3ccccc3c1OC1CC3CCC(C1)N3CC)O2)C(=O)NS(=O)(=O)C1(C)CC1` (single isomer, unassigned) [Example 281], the figures for the Ki in test [1], in test [2] (setting [3]) and in test [2] (setting [4]) were 1.25 nM, 0.016 nM and 0.125 nM, respectively.
`C=CC1C[C@]1(NC(=O)[C@@H]1C[C@@H]2CN1C(=O)[C@H](C1CCCC1)NC(=O)O[C@@H]1CCC[C@H]1CC/C=C/Cc1c(nc3ccccc3c1OCCN1C(=O)CCC1=O)O2)C(=O)NS(=O)(=O)C1CC1` (stereo partly drawn) [Example 76, (3aR,7S,10S,12R,21E,24a)-7-cyclo pentyl-N-{(1R,2S)-1-[(cyclopropylsulfonyl)carbamoyl]-2-ethenylcyclopropyl}-19-[2-(2,5-dioxopyrrolidin-1-yl)ethoxy]-5,8-dioxo-1,2,3,3a,5,6,7,8,11,12,20,23,24,24a-tetradeca hydro-10H-9,12-methanocyclopenta[18,19][1,10,3,6] dioxadiazacyclononadecino[11,12-b] quinoline-10-carboxamide]: the inhibition constant (Ki) in test [1] is 0.71 nM; in test [2] (setting [5]) it was 0.09 nM.
Consider `C=C[C@@H]1C[C@]1(NC(=O)[C@@H]1C[C@@H]2CN1C(=O)[C@H](C1CCCC1)NC(=O)O[C@@H]1CCC[C@H]1CC/C=C/Cc1c(nc3ccccc3c1OCCCn1cccc1)O2)C(=O)NS(=O)(=O)C1(C)CC1` [Example 55, (3aR,7S,10S,12R,21E,24aS)-7-cyclopentyl-N-[(1R,2S)-2-ethenyl-1-{[(1-methylcyclopropyl)sulfonyl]carbamoyl}cyclopropyl]-5,8-dioxo-19-[3-(1H-pyrrol-1-yl)propoxy]-1,2,3,3a,5,6,7,8,11,12,20,23,24,24a-tetradecahydro-10H-9,12-methanocyclopenta[18,19][1,10,3,6] dioxadiazacyclononadecino[11,12-b] quinoline-10-carboxamide], for which the inhibition constant (Ki) in test [1] worked out at 3.9 nM; in test [2] (setting [5]), 0.22 nM.
On the same counts, the results for `C=C[C@@H]1C[C@]1(NC(=O)[C@@H]1C[C@@H]2CN1C(=O)[C@H](C(C)(C)C)NC(=O)O[C@@H]1CCC[C@H]1CCCCCc1c(nc3ccccc3c1OCCCN1CCOCC1)O2)C(=O)NS(=O)(=O)C1CC1` [Example 98, (3aR,S,10S,12R,24aR)-7-tert-butyl-N-{(1R,2S)-1-[(cyclopropyl-sulfonyl)carbamoyl]-2-ethenylcyclopropyl}-19-[3-(morpholin-4-yl)propoxy]-5,8-dioxo-1,2,3,3a,5,6,7,8,11,12,20,21,22,23, 24,24a-hexadecahydro-10H-9,12-methanocyclopenta [18,19][1,10,3,6]dioxadiazacyclo-nonadecino[11,12-b]quinoline-10-carboxamide] are 2.9 nM and 0.18 nM.
`C=C[C@@H]1C[C@]1(NC(=O)[C@@H]1C[C@@H]2CN1C(=O)[C@H](C(C)(C)C)NC(=O)O[C@@H]1C[C@H]1CCCCCc1c(nc3ccccc3c1OCCCNC1CCCc3ccccc31)O2)C(=O)NS(=O)(=O)C1(C)CC1` (stereo partly drawn) [Example 204, (1aR,5S,8S,10R,22aR)-5-tert-butyl-N-[(1R,2S)-2-ethenyl-1-{[(1-methylcyclopropyl)sulfonyl]carbamoyl}cyclopropyl]-3,6-dioxo-17-[3-(1,2,3,4-tetrahydronaphthalen-1-ylamino)propoxy]-1,1a,3,4,5,6,9,10,18,19, 20,21,22,22a-tetradecahydro-8H-7,10-methanocyclopropa[18,19][1,10,3,6] dioxadiazacyclononadecino[11,12-b] quinoline-8-carboxamide]: the inhibitory constant (Ki) stood at 2.4 nM in test [1] and 0.15 nM in test [2] (setting [5]).
With `C=C[C@@H]1C[C@]1(NC(=O)[C@@H]1C[C@@H]2CN1C(=O)[C@H](C(C)(C)C)NC(=O)O[C@@H]1C[C@H]1CCCCCc1c(nc3ccccc3c1OCCN1CCCCC1)O2)C(=O)NS(=O)(=O)C1(C)CC1` [Example 134, (1aR,5S,8S,10R,22aR)-5-tert-butyl-N-[(1R,2S)-2-ethenyl-1-{[(1-methylcyclopropyl)sulfonyl]carbamoyl}cyclopropyl]-3,6-dioxo-17-[2-(piperidin-1-yl)ethoxy]-1,1a,3,4,5,6,9,10,18,19,20,21,22,22a-tetradeca hydro-8H-7,10-methano cyclopropa[18,19][1,10,3,6]dioxadiazacyclo nonadecino[11,12-b]quinoline-8-carboxamide], the figures for the Ki in test [1] and in test [2] (setting [5]) were 6.1 nM and 0.56 nM, respectively.

Source of the values: patent US9328138B2 (priority 2011, dated 2016).
